Experimental data as given in patent US10045529B2, “Quat cleaner with glycerin ether ethoxylates” (Ecolab USA Inc., priority 2012, dated 2018).

How the values were obtained:
[1] = Cloud point of solfactants in various solutions; type: physicochemical
Description: Various 2-Ethyl Hexanol Glycerin Ether Ethoxylate solfactants were produced using ethoxylation by a KOH Catalyst.
Further the cloud point data for the solfactants in various solutions is shown. The cloud point temperatures show the temperature above which a surfactant-rich phase separates from an aqueous solution. There is a clear relationship between the cloud point and the average EO content of the glycerin ether ethoxylate; as the ethylene oxide content of the solfactant increases, the cloud point and water solubility increase. As the carbon number on the molecule increases, a greater number of moles of ethylene oxide are required to be added to the molecule to retain the same cloud point.

[2] = Glewwe foam meter foam height test; type: physicochemical; details: 50 ppm; for OBSERVATIONS (foam stability after pump stopped): after 5 minutes pump stopped; for Foam Height (in) @ 1 MIN / Foam Height (in) @ 5 MIN: city water 17 gpg, 140° F., 6 psi; for Foam Height (in) @ 1 MIN: 1 minute
Description: Foam testing was completed for the ethoxylated glycerine ether solfactants in comparison to commercially-available ethoxylated alcohols using a Glewwe foam meter. A Glewwe foam meter provides a dynamic foam test rather than a static test, which is considered more appropriate for simulation of industrial conditions. The equipment and general procedure for the Glewwe form test is described in U.S. Pat. Nos. 3,899,387 and 5,447,648, which are herein incorporated by reference in its entirety. The foam meter itself consists of a thermostated reservoir and a pump to recirculate the aqueous medium with foaming tendencies. The foam developed by the action of the aqueous stream impinging on the surface in the reservoir causes foam formation.
The foam heights of the tested compositions were determined using the following method. First 3000 mL of city water (e.g. 17 gpg) was filled into the Glewwe cylinder. The pump was turned on, pressure adjusted to 6 psi, and heated water to 140° F. The commercially available surfactant (or the solfactant according to the invention) was added at 50 ppm in the cylinder and the timer was started. Foam height was recorded at 1 minute and 5 minutes. After 5 minutes the pump was stopped and foam stability characteristics were observed. The cylinder was then drained, rinsed, and the methods repeated.

[3] = Tergotometer detergency test on EMPA soiled swatches
Procedure: Laundry detergent compositions using 500 ppm sodium hydroxide (e.g. caustic) and the indicated conventional Surfonic® surfactant or the glycerin ether ethoxylate solfactant according to the invention were evaluated. A tergotometer test procedure was employed to measure detergency of test compositions according to the invention. A tergotometer along with 500 mL pots and water bath were employed. First, unwashed swatches from the lot numbers to be used in the test are read on the Konica Minolta Spectrophotometer model CM-3600d to establish the average initial (before washing) L value. A sampling of each swatch type is used. The desired wash temperature is programmed into the Tergotometer and its water bath is allowed to heat up to that temperature. 500 mL of the desired water type is added to each Tergotometer pot and allowed to equilibrate to the desired temperature.
The following standard, commercially available (EMPA) soiled swatches were used for baseline testing in the Examples, as shown in Table 9.
The test detergent compositions are weighed out and added to the Tergotometer pots. Various detergent compositions as shown in Tables 10-11 were employed under varying water conditions, including 5 grain water (Table 10) and 17 grain water (Table 11).
The detergent systems were agitated for 10 minutes to mix and dissolve in the water sources. The agitation/mixing speed RPM was adjusted to 200. The temperature of the detergent compositions dissolved in water was 60° C., unless indicated otherwise in the Figures/Examples set forth below. The swatches are added quickly to their respective pots in a left to right sequence in order to minimize differences in exposure time to the detergent systems. A wash run is completed for at least 10 minutes. At the end of the run, the swatches are removed from the pots quickly in a left to right sequence using a forceps and are transferred into 500 mL-1 liter of cool water to rinse. After rinsing with cold tap water, excess water from the swatches was removed by squeezing the swatches. The process was repeated with rinsing and squeezing excess water at least 2 more times. The swatches were air dried on a visa napkin or paper towel on the lab bench.
The swatches were then read on the HunterLab Color Quest and calculate % soil removal (i.e. whiteness) from the difference between the initial (before washing) L value and the final L value (after washing). Percent Soil Removal=(L after−L initial)/(96−L initial)*100 is represented as L*.

[4] = Gel formation with water; type: physicochemical
Description: The low foam profiles and low viscosity of the glycerin ether ethoxylate solfactants as shown in Examples 5 and 6 were further compared to gel curves of conventional ethoxylated alcohols (e.g. Tomadol surfactants). […]

[5] = 5 gpg water, 50 ppm, 500 ppm sodium hydroxide, 60° C., EMPA 116 (Blood, milk and ink, Cotton)
[6] = 5 gpg, 50 ppm, EMPA 101 (olive oil/carbon black, Cotton)
[7] = 5 gpg, 50 ppm, EMPA 104 (olive oil/carbon black, Cotton blend)
[8] = 5 gpg, 50 ppm, EMPA 106 (mineral oil, Cotton)
[9] = 5 gpg, 50 ppm, EMPA 111 (Pig blood, Cotton)
[10] = 5 gpg, 50 ppm, EMPA 114 (Red wine, Cotton)
[11] = Glycerin Ether Ethoxylate %/Water % 10%/90%

Substance | OBSERVATIONS (foam stability after pump stopped) [2] | Foam Height (in) @ 1 MIN [2] [in] | Foam Height (in) @ 5 MIN [2] [in] | % removal EMPA 116 [3, 5] [%] | % removal EMPA 101 [3, 6] [%] | % removal EMPA 104 [3, 7] [%] | % removal EMPA 106 [3, 8] [%] | % removal EMPA 111 [3, 9] [%] | % removal EMPA 114 [3, 10] [%] | % removal EMPA 101 ([3]; 5 gpg, 100 ppm, EMPA 101) [%] | % removal EMPA 104 ([3]; 5 gpg, 100 ppm, EMPA 104) [%] | % removal EMPA 106 ([3]; 5 gpg, 100 ppm, EMPA 106) [%] | % removal EMPA 111 ([3]; 5 gpg, 100 ppm, EMPA 111) [%] | % removal EMPA 114 ([3]; 5 gpg, 100 ppm, EMPA 114) [%] | % removal EMPA 116 ([3]; 5 gpg, 100 ppm, EMPA 116) [%] | % removal EMPA 101 ([3]; 17 gpg, 50 ppm, EMPA 101) [%] | % removal EMPA 104 ([3]; 17 gpg, 50 ppm, EMPA 104) [%] | % removal EMPA 106 ([3]; 17 gpg, 50 ppm, EMPA 106) [%] | % removal EMPA 111 ([3]; 17 gpg, 50 ppm, EMPA 111) [%] | % removal EMPA 114 ([3]; 17 gpg, 50 ppm, EMPA 114) [%] | further results
2-Ethyl Hexanol Glycerin Ether Ethoxylate (1 mole) [2EHGE (1 EO)] | Unstable - Breaks | 3 | 3 | 26 | 27 | 26 | 50.77 | 49 | 0 | 29 | 21 | 48.73 | 52 | −1 | 27 | 19 | 14 | 6 | 32 | 0 | Cloud Point Data 10% in BDG Soln. ([1]; 10% in BDG Soln.): 59.5 °C; % removal EMPA 116 ([3]; 17 gpg, 50 ppm, EMPA 116): 17%; % removal EMPA 101 ([3]; 17 gpg, 100 ppm, EMPA 101): 18%; % removal EMPA 104 ([3]; 17 gpg, 100 ppm, EMPA 104): 15%; % removal EMPA 106 ([3]; 17 gpg, 100 ppm, EMPA 106): 7%; % removal EMPA 111 ([3]; 17 gpg, 100 ppm, EMPA 111): 30%; % removal EMPA 114 ([3]; 17 gpg, 100 ppm, EMPA 114): −1%; % removal EMPA 116 ([3]; 17 gpg, 100 ppm, EMPA 116): 17%
2-Ethyl Hexanol Glycerin Ether Ethoxylate (3 moles) [2EHGE (3 EO)] | Unstable - Breaks | 3.5 | 4 | 34 | 45 | 49 | 60.8 | 50 | 1 | 29 | 25 | 50.39 | 48 | 0 | 29 | 17 | 15 | 14 | 29 | −2 | Cloud Point Data 1% in 10% NaCl [1]: 33 °C; Cloud Point Data 1% in D.I. H2O ([1]; 1% in D.I. H2O): 50.5 °C; Gel Formation ([4]; 20%/80%): None; Gel Formation ([4]; 30%/70%): None; Gel Formation ([4]; 40%/60%): None; Gel Formation ([4]; 50%/50%): None; Gel Formation ([4]; 60%/40%): None; Gel Formation ([4]; 70%/30%): None; Gel Formation ([4]; 80%/20%): None; Gel Formation ([4]; 90%/10%): None; Gel Formation [4, 11]: None; % removal EMPA 116 ([3]; 17 gpg, 50 ppm, EMPA 116): 15%; % removal EMPA 101 ([3]; 17 gpg, 100 ppm, EMPA 101): 19%; % removal EMPA 104 ([3]; 17 gpg, 100 ppm, EMPA 104): 13%; % removal EMPA 106 ([3]; 17 gpg, 100 ppm, EMPA 106): 9%; % removal EMPA 111 ([3]; 17 gpg, 100 ppm, EMPA 111): 27%; % removal EMPA 114 ([3]; 17 gpg, 100 ppm, EMPA 114): −1%; % removal EMPA 116 ([3]; 17 gpg, 100 ppm, EMPA 116): 16%
2-Ethyl Hexanol Glycerin Ether Ethoxylate (5 moles) [2EHGE (5 EO)] | Unstable - Breaks | 4 | 4 | 30 | 40 | 48 | 59.51 | 48 | 2 | 29 | 23 | 49.62 | 45 | 1 | 28 | 19 | 15 | 13 | 30 | 0 | Cloud Point Data 1% in 10% NaCl [1]: 71.5 °C; Gel Formation ([4]; 20%/80%): None; Gel Formation ([4]; 30%/70%): None; Gel Formation ([4]; 40%/60%): None; Gel Formation ([4]; 50%/50%): None; Gel Formation ([4]; 60%/40%): None; Gel Formation ([4]; 70%/30%): None; Gel Formation ([4]; 80%/20%): None; Gel Formation ([4]; 90%/10%): None; Gel Formation [4, 11]: None; % removal EMPA 116 ([3]; 17 gpg, 50 ppm, EMPA 116): 17%; % removal EMPA 101 ([3]; 17 gpg, 100 ppm, EMPA 101): 21%; % removal EMPA 104 ([3]; 17 gpg, 100 ppm, EMPA 104): 19%; % removal EMPA 106 ([3]; 17 gpg, 100 ppm, EMPA 106): 11%; % removal EMPA 111 ([3]; 17 gpg, 100 ppm, EMPA 111): 41%; % removal EMPA 114 ([3]; 17 gpg, 100 ppm, EMPA 114): 0%; % removal EMPA 116 ([3]; 17 gpg, 100 ppm, EMPA 116): 20%
2-Ethyl Hexanol Glycerin Ether Ethoxylate (7 moles) [2EHGE (7 EO)] | Unstable - Breaks | 5 | 4.5 | 33 | 38 | 47 | 59.88 | 52 | 1 | 25 | 17 | 46.8 | 49 | −3 | 19 | 20 | 15 | 11 | 32 | 0 | Cloud Point Data 1% in 10% NaCl [1]: 78 °C; Gel Formation ([4]; 20%/80%): None; Gel Formation ([4]; 30%/70%): None; Gel Formation ([4]; 40%/60%): None; Gel Formation ([4]; 50%/50%): None; Gel Formation ([4]; 60%/40%): None; Gel Formation ([4]; 70%/30%): None; Gel Formation ([4]; 80%/20%): None; Gel Formation ([4]; 90%/10%): None; Gel Formation [4, 11]: None; % removal EMPA 116 ([3]; 17 gpg, 50 ppm, EMPA 116): 16%; % removal EMPA 101 ([3]; 17 gpg, 100 ppm, EMPA 101): 20%; % removal EMPA 104 ([3]; 17 gpg, 100 ppm, EMPA 104): 17%; % removal EMPA 106 ([3]; 17 gpg, 100 ppm, EMPA 106): 9%; % removal EMPA 111 ([3]; 17 gpg, 100 ppm, EMPA 111): 35%; % removal EMPA 114 ([3]; 17 gpg, 100 ppm, EMPA 114): 0%; % removal EMPA 116 ([3]; 17 gpg, 100 ppm, EMPA 116): 17%
